± gives the expanded uncertainty stated by the source.
Conditions: Liquid

ClCCCCCl [1,4-dichlorobutane]
mass density [kg/m3]
Conditions | 288.15 K | 298.15 K | 308.15 K | 318.15 K
100 kPa | 1143.7 ± 3.5 | 1133.7 ± 3.4 | 1122.3 ± 3.3 | 1112 ± 3.2
500 kPa | 1144.1 ± 3.5 | 1134 ± 3.4 | 1122.7 ± 3.3 | 1112.4 ± 3.2
1000 kPa | 1144.5 ± 3.5 | 1134.4 ± 3.4 | 1123.1 ± 3.3 | 1112.8 ± 3.2
1500 kPa | 1144.8 ± 3.6 | 1134.8 ± 3.5 | 1123.5 ± 3.4 | 1113.2 ± 3.3
2000 kPa | 1145.2 ± 3.6 | 1135.2 ± 3.5 | 1123.9 ± 3.4 | 1113.7 ± 3.3
2500 kPa | 1145.5 ± 3.6 | 1135.6 ± 3.5 | 1124.3 ± 3.4 | 1114.1 ± 3.3
3000 kPa | 1145.9 ± 3.7 | – | – | –
3100 kPa | – | 1136.1 ± 3.6 | 1124.8 ± 3.5 | 1114.7 ± 3.4
3500 kPa | – | – | – | 1115 ± 3.4
3600 kPa | 1146.4 ± 3.7 | 1136.4 ± 3.6 | 1125.2 ± 3.5 | –
4100 kPa | 1146.7 ± 3.8 | 1136.8 ± 3.7 | 1125.6 ± 3.5 | 1115.5 ± 3.4
4600 kPa | 1147 ± 3.8 | 1137.2 ± 3.7 | 1126 ± 3.6 | 1115.9 ± 3.5
5100 kPa | 1147.4 ± 3.8 | 1137.6 ± 3.7 | 1126.4 ± 3.6 | 1116.3 ± 3.5
5600 kPa | 1147.7 ± 3.9 | 1137.9 ± 3.8 | 1126.9 ± 3.6 | 1116.8 ± 3.5
6100 kPa | 1148.1 ± 3.9 | 1138.4 ± 3.8 | 1127.2 ± 3.7 | 1117.3 ± 3.6
6600 kPa | 1148.5 ± 4 | 1138.7 ± 3.8 | 1127.5 ± 3.7 | 1117.7 ± 3.6
7100 kPa | 1148.9 ± 4 | 1139.1 ± 3.9 | 1128 ± 3.7 | 1118.1 ± 3.6
7600 kPa | 1149.2 ± 4 | 1139.4 ± 3.9 | 1128.4 ± 3.8 | 1118.4 ± 3.7
8100 kPa | 1149.5 ± 4.1 | 1139.8 ± 4 | 1128.8 ± 3.8 | 1118.9 ± 3.7
8600 kPa | 1149.9 ± 4.1 | 1140.2 ± 4 | 1129.2 ± 3.9 | 1119.3 ± 3.7
9200 kPa | 1150.3 ± 4.2 | 1140.6 ± 4 | 1129.6 ± 3.9 | 1119.8 ± 3.8
9600 kPa | 1150.7 ± 4.2 | 1141 ± 4.1 | 1130 ± 3.9 | 1120.2 ± 3.8
10100 kPa | 1151 ± 4.2 | 1141.4 ± 4.1 | 1130.4 ± 4 | 1120.6 ± 3.8
10600 kPa | 1151.3 ± 4.3 | – | 1130.9 ± 4 | 1121 ± 3.9
10700 kPa | – | 1141.8 ± 4.2 | – | –
11100 kPa | 1151.7 ± 4.3 | 1142.1 ± 4.2 | 1131.2 ± 4 | 1121.4 ± 3.9
11600 kPa | 1152 ± 4.4 | 1142.4 ± 4.2 | 1131.5 ± 4.1 | 1121.8 ± 3.9
12100 kPa | 1152.4 ± 4.4 | 1142.8 ± 4.3 | 1131.9 ± 4.1 | 1122.1 ± 4
12600 kPa | 1152.7 ± 4.4 | 1143.2 ± 4.3 | 1132.4 ± 4.1 | 1122.6 ± 4
13000 kPa | – | – | – | 1123 ± 4
13100 kPa | 1153.1 ± 4.5 | 1143.6 ± 4.3 | 1132.6 ± 4.2 | –
13500 kPa | 1153.3 ± 4.5 | – | – | –
13600 kPa | – | 1143.9 ± 4.4 | 1133.1 ± 4.2 | 1123.3 ± 4.1
14100 kPa | – | 1144.2 ± 4.4 | 1133.5 ± 4.2 | –
14200 kPa | 1153.8 ± 4.6 | – | – | 1123.9 ± 4.1
14700 kPa | 1154.1 ± 4.6 | 1144.6 ± 4.5 | 1133.9 ± 4.3 | 1124.4 ± 4.1
15100 kPa | – | – | 1134.2 ± 4.3 | –
15200 kPa | 1154.4 ± 4.6 | 1145 ± 4.5 | – | 1124.7 ± 4.2
15700 kPa | 1154.8 ± 4.7 | 1145.4 ± 4.5 | 1134.6 ± 4.4 | 1125.1 ± 4.2
16200 kPa | – | 1145.8 ± 4.6 | 1135 ± 4.4 | –
16300 kPa | 1155.2 ± 4.7 | – | – | 1125.4 ± 4.3
16700 kPa | – | 1146.1 ± 4.6 | 1135.3 ± 4.4 | –
16800 kPa | 1155.6 ± 4.8 | – | – | 1126 ± 4.3
17200 kPa | – | 1146.5 ± 4.7 | 1135.7 ± 4.5 | –
17300 kPa | 1155.9 ± 4.8 | – | – | 1126.3 ± 4.3
17800 kPa | 1156.2 ± 4.9 | 1146.9 ± 4.7 | 1136.1 ± 4.5 | 1126.5 ± 4.4
18300 kPa | 1156.5 ± 4.9 | 1147.2 ± 4.7 | 1136.5 ± 4.6 | 1127 ± 4.4
18800 kPa | 1156.8 ± 4.9 | 1147.6 ± 4.8 | 1136.8 ± 4.6 | 1127.4 ± 4.4
19100 kPa | 1157.1 ± 5 | – | – | –
19200 kPa | – | 1147.9 ± 4.8 | 1137.2 ± 4.6 | 1127.7 ± 4.5
19700 kPa | 1157.4 ± 5 | 1148.2 ± 4.9 | 1137.6 ± 4.7 | 1128 ± 4.5
20200 kPa | 1157.8 ± 5.1 | 1148.7 ± 4.9 | 1138 ± 4.7 | 1128.4 ± 4.5

— the NIST ThermoML archive (doi:10.1021/je700339f)
